# Data from article PMC8537218, “Discovery of a Novel Class of Norovirus Inhibitors with High Barrier of Resistance” (Pharmaceuticals, 2021).
# Values joined by “and” are separate entries in the source; they are usually repeats but may differ in a detail not shown here. Identical values can stand only once. “Also recorded” adds a separate entry of the source. Like-named read-outs stand apart in the source and are kept apart here.
# How the values were obtained:
# [1] = test system: Murine norovirus type 1, strain CW1; test: MNV-induced CPE reduction assay (MTS read-out) in RAW 264.7 cells; format: cell-based; details: MNV CW1, RAW 264.7 cells, read-out: MNV EC50 ± SD
# Method: Norovirus: The experiment was performed as described earlier. In short, RAW 264.7 cells (1 × 10^4 cells/well) were infected with MNV.CW1 in the presence of a dilution series of compounds. Antiviral activity and cytotoxicity were determined using a colometric assay using 3-(4,5-dimethylthiazol-2-yl)-5-(3-carboxymethoxyphenyl)-2-(4-sulfophenyl)-2H-tetrazolium (MTS). The 50% effective concentration (EC50) was defined as the compound concentration that protected 50% of the cells from CPE. The cell viability % was calculated as (ODtreated/ODCC) […] and the 50% cytotoxic concentration (CC50) was defined as the compound concentration that reduces the number of viable cells by 50%.
# [2] = test system: HuNoV GI.1 replicon (Norwalk replicon); test: HuNoV GI.1 replicon assay in HG23 cells (RT-qPCR); format: cell-based, Human norovirus
# Method: HuNoV GI.1 replicon: The experiment was performed as described earlier with minor modifications. In short, HG23 cells (7.5 × 10^2 cells/well) were seeded into the wells of a 96-well plate without G418 (Geneticin Selective Antibiotic). After 24 h of incubation, serial dilutions of compounds were added. Cells were further incubated for 72 h, then cells were collected for RNA load quantification by RT-qPCR. To determine relative levels of Norwalk virus replicon RNA, β-actin was used as a normalizer and ratios were calculated as previously described.
# MNV [3] = test: MNV virus yield assay, viral RNA by RT-qPCR; format: cell-based, Murine norovirus; details: viral RNA levels by RT-qPCR
# Method: The supernatants of treated or untreated infected cells were harvested. The viral RNA was isolated from supernatant using the NucleoSpin RNA Virus Kit (Macherey–Nagel), according to the manufacturer’s protocol and was quantified by RT-qPCR. A one-step RT-qPCR was performed in a reaction mixture of 20 μL containing 10 μL reaction mix from the iTaq Universal Probes One-Step Kit (Bio-Rad), 0.5 μL reverse transcriptase, 4 μL template RNA, primers, and probe.
# MNV [4] = test: Time-of-drug-addition assay (TOA) in MNV-infected RAW 264.7 cells; format: cell-based, Murine norovirus
# Method: RAW 264.7 cells (4 × 10^5 cells/mL) were infected with MNV (MOI of 1). After 1 h at 4 °C, cells were washed with cold (4 °C) DMEM to remove unbound viruses. Cells were incubated at 37 °C to start the infection. To study the replication kinetics of MNV supernatant and cells were harvested, from untreated cultures, every 2 h until 24 h post-infection (pi) and viral RNA was quantified by RT-qPCR. In parallel, another set of infected cultures were treated with compound. The compound was added at 2 h intervals and cultures were further incubated until 24 h pi, supernatant and cells were collected separately for determination of the viral RNA by RT-qPCR. The isolation of the extracellular MNV RNA from cell culture supernatant was done by the NucleoSpin RNA Virus Kit (Macherey–Nagel), and the intracellular RNA was extracted from cells by the RNeasy kit (Qiagen).
# MNV RdRp = MNV RdRp (Norovirus, UniProt Q80J95); test: In vitro enzymatic inhibition assay with MNV RdRp; format: biochemical, Murine norovirus; details: 3.4 µM MNV RdRp, poly(U) template, 100 µM ATP, compound 0 to 100 µM
# Chain of MNV RdRp (Q80J95 1178-1687): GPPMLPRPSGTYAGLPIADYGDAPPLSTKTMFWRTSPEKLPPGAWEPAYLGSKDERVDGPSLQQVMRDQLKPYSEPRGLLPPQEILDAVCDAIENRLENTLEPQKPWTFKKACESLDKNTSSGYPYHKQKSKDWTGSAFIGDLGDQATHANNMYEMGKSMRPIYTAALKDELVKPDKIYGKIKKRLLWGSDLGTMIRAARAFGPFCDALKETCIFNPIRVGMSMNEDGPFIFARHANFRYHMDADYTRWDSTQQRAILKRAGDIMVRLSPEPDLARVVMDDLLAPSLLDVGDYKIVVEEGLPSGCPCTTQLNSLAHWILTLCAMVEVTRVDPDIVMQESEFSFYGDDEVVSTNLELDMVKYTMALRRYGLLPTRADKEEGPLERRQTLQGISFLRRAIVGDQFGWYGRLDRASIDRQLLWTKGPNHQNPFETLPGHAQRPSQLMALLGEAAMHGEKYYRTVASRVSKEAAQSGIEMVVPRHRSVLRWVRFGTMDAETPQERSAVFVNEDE
# Method: Compound 6 was tested to determine its effects on the polymerase activity. The formation of dsRNA, from a single-stranded poly(U) template (Sigma-Aldrich, 10 µg) and 100 µM ATP, was followed for 1 h at 30 °C on a TECAN Infinite 200 PRO microplate reader, measuring the growth of PicoGreen fluorescence (Ex/Em = 485/530 nm) after the addition of 3.4 µM MNV RdRp and of increasing amounts of compound 6 (from 0 to 100 µM), in a reaction mixture containing 20 mM Tris/HCl (pH 7.5), 25 mM NaCl, 0,3 mM MnCl2, 5 mM MgCl2, 1 mM DTT, 2 U RiboLock Ribonuclease inhibitor (Life technologies). The final fluorescence values were calculated as the average of four independent experiments. Measurement of the activity (i.e., linear slope of fluorescence increase in time) vs. compound 6 concentration was used to estimate the IC50 value of the compound with the program GraFit5 (Erithacus software).
# [5] = test system: compound 6res MNV variants; test: Antiviral assay on selected compound 6res MNV variants in RAW 264.7 cells; format: cell-based, Murine norovirus
# Method: RAW 264.7 cells (1 × 10^4 cells/well) were seeded into the wells of 96-well plate and were infected with MNV.CW1 in the presence of a dilution series of compounds. When CPE was visible in the virus control (no compound), all the wells were scored for visible CPE. Virus was harvested from the wells in which CPE was observed under the highest compound pressure. The resistant virus was then diluted to 1:5 and used to infect a new 96-well plate under the same conditions to continue. […] MNV^res viruses were analyzed by deep sequencing by the group of Prof. Matthijnssens as described previously. The assembled sequence of the untreated MNV, that was passaged in parallel, was used as reference to align the MNV variants that were under compound pressure.
# (§1) The assessment of the antiviral activity of compounds on resistant viruses was performed similarly as the regular antiviral assay on MNV. First, the titer of the resistant viruses was determined by endpoint titration. A concentration of 30× TCID50 was used for each virus in the antiviral assays. RAW 264.7 cells (1 × 10^4 cells/well) were seeded in the presence of a dilution series of compounds and infected. Antiviral activity was determined using the MTS method. The 50% effective concentration (EC50) was defined as the compound concentration that protected 50% of the cells from CPE.
# [6] = test system: MNV.CW3/S131T and MNV.CW3/Y154F; test: Antiviral assay on reverse-engineered MNV.CW3 mutant viruses (S131T, Y154F); format: cell-based, Murine norovirus; details: single mutations S131T or Y154F in MNV backbone
# Method: The desired mutations were introduced into the MNV.CW3 cDNA clones using the QuikChange II XL mutagenesis kit (Agilent) according to the manufacturer’s instructions. The presence of the desired mutation in the produced construct was confirmed by PCR and sequencing was done by Macrogen Inc. Sequences were analyzed and mutations were detected using the Geneious software.
# The MNV.CW3 mutant viral stocks were obtained by transfecting the mutated plasmid pMNV CW3 (kindly provided by Prof. Wobus, University of Michigan) in Huh 7 Lunet cells expressing the MNV receptor CD300lf (kindly provided by Prof. Taube, University of Lübeck). Huh-7 CD300lf cells were cultured under selective pressure of G418. The Huh-7 CD300lf cells were seeded in 6-well plates at a density of 2 × 10^5 cells/mL in 2.5 mL of complete media. After 24 h, the cells were transfected with 2.5 μg of pMNV CW3 plasmid DNA using the TransIT mRNA Transfection Kit (Mirus Bio Corporation) according to the manufacturer’s protocol. Red fluorescent protein (RFP) was used as a positive control for transfection. Transfected cells were incubated for 48 h, cells underwent two freeze thaw cycles and the virus was harvested from the supernatants after centrifugation (10 min, 1000× g) and stored at −80 °C. Virus stocks were passaged for three times on BV-2 cells and followed by two consecutive passages on RAW 264.7 cells. Viral titers were determined by serial dilutions on RAW 264.7 cells seeded in 96-well plates.
# as §1
compound,measurement,setting,value
"Cc1cc(C)cc(S(=O)(=O)c2c(C(=O)NCc3ccc(CO)cc3)[nH]c3ccc(Cl)cc23)c1 [compound 6, 5-Chloro-3-((3,5-dimethylphenyl)sulfonyl)-N-(4-(hydroxymethyl)benzyl)-1H-indole-2-carboxamide]",EC50,"[1]; RAW264.7, concentration inhibiting norovirus induced cell death (CPE) by 50%",200 ± 100 nM
same,EC50,[1]; concentration inhibiting norovirus induced cell death (CPE) by 50%,160 ± 60 nM
same,EC50,"[2]; Norovirus, HG23, 72 h, read-out: HuNoV Replicon EC50 ± SD (µM), Norwalk replicon (human GI.1), HG23 cells, 72 h, replicon RNA by RT-qPCR",1.24 µM
same,EC50,"[2]; Norwalk replicon (human GI.1), HG23 cells, 72 h, replicon RNA by RT-qPCR, read-out: HuNoV Replicon EC50 ± SD",1.2 µM and ~1.7 µM
same,adverse effects on the host cells,[2]; host cells of HuNoV GI.1 replicon assay,without adverse effects on the host cells
same,EC50,"[2]; read-out: HuNoV Replicon EC50 ± SD, Norwalk replicon (human GI.1), HG23 cells, 72 h, replicon RNA by RT-qPCR",1.27 ± 0.76 µM
same,EC50,MNV [3],210 ± 30 nM
same,time of addition after which the antiviral effect was lost,"MNV [4]; MNV MOI 1, RAW 264.7 cells, compound added at 2 h intervals",6–8 h pi
same,step of the MNV replication cycle at which the compound acts,MNV [4]; time-of-addition experiment,onset of the viral genome replication
same,direct inhibition of the norovirus polymerase (competition with natural substrate),MNV RdRp,no direct competition; also recorded: could not directly inhibit the active site of the enzyme
same,shift in EC50,[5]; mutants 1 and 3 together,6–8 fold
same,shift in EC50 values,"[5]; resistant variant mutant 1 (first value), after 30 passages",8.6 fold
same,shift in EC50 values,"[5]; resistant variant mutant 3, after 30 passages",6.2 fold
same,shift in EC50 / sensitivity of mutant viruses,[6],no shift in EC50
same,melting point,,124 to 126 °C
